This is an account of results in ChEMBL document CHEMBL1687809, “Novel apramycin resistance gene apmA in bovine and porcine methicillin-resistant Staphylococcus aureus ST398 isolates” (2011).

Values after ≈ are worked out from the molar mass of the structure shown.

What all share (assay type): functional
Assay [1] has as its system Staphylococcus aureus. The experiment in a line: Antimicrobial activity against methicillin-resistant Staphylococcus aureus ST398 isolate 11 containing apmA, erm(B), tet(L), tet(M), tet(K), dfrK, aadD, mecA, blaZ resistance genes by CLSI M31-A3 method.
For assay [2], the system named is Staphylococcus aureus. The assay can be described thus: Antimicrobial activity against Staphylococcus aureus RN4220 by CLSI M31-A3 method.
The test system of assay [3] is Staphylococcus aureus. The experiment in a line: Antimicrobial activity against Staphylococcus aureus RN4220 carrying pAFS11-apmA, erm(B), tet(L), dfrK, aadD resistance genes by CLSI M31-A3 method.

By MIC is commonly meant the lowest concentration found to suppress growth. A lower MIC goes with a more susceptible organism. In the case of `COc1cc(Cc2cnc(N)nc2N)cc(OC)c1OC` [TRIMETHOPRIM], the MIC is ≥ 256 µg/mL in assay [1], 0.5 µg/mL (≈ 1.72 µM) in assay [2] and ≥ 256 µg/mL in assay [3].
On to `CN[C@@H]1[C@@H](O[C@H]2O[C@H](CO)[C@@H](N)[C@H](O)[C@H]2O)OC2C[C@@H](N)[C@@H](O[C@H]3[C@H](O)[C@@H](O)[C@H](N)C[C@@H]3N)OC2[C@@H]1O` (some centres not stated) [APRAMYCIN], for which the results for the MIC in assay [1], in assay [2] and in assay [3] were ≥ 128 µg/mL, 1 µg/mL (≈ 1.85 µM) and ≥ 128 µg/mL, respectively.
With `NC[C@H]1O[C@H](O[C@H]2[C@H](O)[C@@H](O[C@H]3O[C@H](CO)[C@@H](O)[C@H](N)[C@H]3O)[C@H](N)C[C@@H]2N)[C@H](O)[C@@H](O)[C@@H]1O` [KANAMYCIN], the MIC in assay [1] was ≥ 128 µg/mL; in assay [2] it was 4 µg/mL (≈ 8.26 µM); in assay [3], 64 µg/mL (≈ 132 µM).
As for `NC[C@@H]1O[C@H](O[C@H]2[C@@H](O)[C@H](O[C@@H]3[C@@H](O)[C@H](N)C[C@H](N)[C@H]3O[C@H]3O[C@H](CN)[C@@H](O)[C@H](O)[C@H]3N)O[C@@H]2CO)[C@H](N)[C@@H](O)[C@@H]1O` [FRAMYCETIN], the MIC in assay [1] was 128 µg/mL (≈ 208 µM); in assay [2], ≤ 1 µg/mL; in assay [3], 32 µg/mL (≈ 52.1 µM).
In the same order, the values of GENTAMICIN are 8 µg/mL, 0.25 µg/mL and 8 µg/mL.
With `CN(C)[C@@H]1C(O)=C(C(N)=O)C(=O)[C@@]2(O)C(O)=C3C(=O)c4c(O)cccc4[C@@](C)(O)[C@H]3C[C@@H]12` [TETRACYCLINE], the MIC in assay [1] was 64 µg/mL (≈ 144 µM); in assay [2], 0.12 µg/mL (≈ 0.27 µM); in assay [3] it was 32 µg/mL (≈ 72 µM).
`Cc1onc(-c2ccccc2)c1C(=O)N[C@@H]1C(=O)N2[C@@H]1SC(C)(C)[C@@H]2C(=O)O` [OXACILLIN]: the values for the MIC in assay [1], in assay [2] and in assay [3] were 16 µg/mL (≈ 39.9 µM), 0.12 µg/mL (≈ 0.299 µM) and 0.12 µg/mL (≈ 0.299 µM), respectively.
Regarding `CC[C@H]1OC(=O)[C@H](C)[C@@H](O[C@H]2C[C@@](C)(OC)[C@@H](O)[C@H](C)O2)[C@H](C)[C@@H](O[C@@H]2O[C@H](C)C[C@H](N(C)C)[C@H]2O)[C@](C)(O)C[C@@H](C)C(=O)[C@H](C)[C@@H](O)[C@]1(C)O` [ERYTHROMYCIN], the figures for the MIC in assay [1], in assay [2] and in assay [3] were ≥ 64 µg/mL, 0.12 µg/mL (≈ 0.164 µM) and ≥ 64 µg/mL, respectively.
Regarding `CCC[C@@H]1C[C@@H](C(=O)N[C@@H]([C@H]2O[C@H](SC)[C@H](O)[C@@H](O)[C@H]2O)[C@H](C)Cl)N(C)C1` [CLINDAMYCIN], the MIC in assay [1] is ≥ 128 µg/mL; in assay [2], ≤ 0.12 µg/mL; in assay [3], ≥ 128 µg/mL.
